The test system of data set [1] is SUDHL6 subcutaneous xenografts. Description: IKE efficacy study, tumor volume. The conditions noted are these: starting from day 9 of treatment. It counts as in vivo, NCG mice. The protocol:
IKE was dissolved in 5% DMSO/95% HBSS at pH 4 to create a 4 mg/mL solution. 5% DMSO/95% HBSS at pH 4 was used as vehicle 1. IKE PEG-PLGA nanoparticles and unfunctionalized PEG-PLGA nanoparticles (without IKE loading) (vehicle 2) prepared with a NanoAssemblr were dialyzed with deionized water overnight, the water was changed at least twice. Dialyzed IKE-PEG-PLGA nanoparticles and unfunctional PEG-PLGA nanoparticles were concentrated by Amicon Ultra-15 Centrifugal Filter Units to create a solution with 80 mg/mL PEG-PLGA nanoparticles. All above solutions were sterilized by filter through a 0.2 μm syringe filter.
NCG mice, 6-weeks old, were injected with 10 million SUDHLO-6 cells subcutaneously. […] Tumor volume was measured daily with electronic caliper and calculated using the formula: 0.5×length×width^2. […] Tumor volume change was analyzed in Prism using one-way ANOVA. Tumor tissues were analyzed as described in the RT-qPCR, immunofluorescence, TBARS, and lipidomics sections below.
We investigated the efficacy of IKE in vivo in male NCG mice bearing SUDHL6 subcutaneous xenografts. […] During the experimental period, mouse weight and tumor volume were measured daily to determine IKE's antitumor effect and possible toxicity. Tumor growth was calculated as the fold change relative to original tumor volume on day 0 before the first dose (FIG. 4C). […]

The subject of data set [2] is SUDHL6 xenograft tumor tissue. In words: qPCR in mouse tumor tissue after one IKE dose. In kind it is in vivo, NCG mice. The conditions noted are these: single dose IKE 50 mg/kg, starting at 3 h. The protocol:
NCG mice 6-weeks of age were injected with 10 million SUDHL-6 cells subcutaneously. Visible tumors appeared after 2 weeks. Tumor size was measured by electronic caliper every 2 days and calculated using the formula: 0.5×length×width^2. After another 2 weeks, mice were randomly separated into group of 3 mice per cage with roughly tumor size (1200 mm^3). Mice were dosed at 50 mg/kg IKE, 22 mg/kg IKE, 22 mg/kg IKE PEG-PLGA nanoparticles (equal to 600 mg/kg PEG-PLGA) using IP at one time and samples were collected at 0, 1, 2, 3, 4, 6, and 24 h with three mice per time point. Mice were dosed with Vehicle 1 and Vehicle 2 (600 mg/kg PEG-PLGA) by IP and samples were collected at 24 h. […] Plasma samples were collected and analyzed as described above. […] After drying, the samples were resuspended in 100 μL of methanol and analyzed on the LC-MS with each sample analyzed twice. […] The concentration of IKE in the sample was determined by comparison against a standard curve of IKE in the range of 25 to 2,500 ng/mL. […] Pharmacokinetics parameters of IKE were assessed using Prism fitted with Lognormal of one phase exponential decay. […]
To perform qPCR analysis in mouse tumor tissue, ˜20 mg of tumor tissue was prepared and kept on dry ice. […] RNA was reverse transcribed to cDNA then used in quantitative PCR experiment following the same steps used in cell qPCR experiment.
(In general: Real-time PCR tracks product formation cycle by cycle.)

Data set [3] in a line: Erastin and IKE solubility measurements (nephelometry). In kind it is physicochemical. Here is the method:
Solubility measurement samples were prepared in a 96-well Corning Costar plate with two at 1% and 5% DMSO v/v with a total sample volume of 200 μL in MilliQ water. A BMG Labtech NEPHELOstar nephelometer was used to measure turbidity of the samples with the following parameters per the instrument manufacturer: Gain=80, Laser Focus=2.50 mm, and Laser Intensity=90%. Samples were shaken in the nephelometer by orbital shaking for 3 s prior to the turbidity measurement. Sample values were blanked in the instrument software using the corresponding water and DMSO condition values. Turbidity 4000 NTU Calibration Standard-Formazin (Millipore-Sigma) was used as a positive control for all turbidity measurements. The turbidity of each sample was measured within 20 minutes of initial preparation. After the initial measurement, the sample plates were covered with aluminum sealing film and allowed to sit overnight at room temperature prior to re-measuring.

Each structure is given as a SMILES string.

As to `CC(C)Oc1ccc(C(=O)Cn2ccnc2)cc1-n1c(CN2CCN(C(=O)COc3ccc(Cl)cc3)CC2)nc2ccccc2c1=O` [IKE, Imidazole ketone erastin], the “tumor growth (tumor volume fold change vs day 0)” value in data set [1] (23 mg/kg i.p. once daily) and in data set [1] (40 mg/kg i.p. once daily) was “significant decrease in tumor growth” in each case. Further, the “CHAC1 mRNA upregulation in tumor” value in data set [2] is recorded as 2 fold. For the same compound, the “water solubility (in words)” value in data set [3] is recorded as “soluble under acidic aqueous conditions, but not to the same degree under neutral aqueous conditions”.

(Values after patent US20210267978A1, “NANOPARTICLE FORMULATIONS OF IKE AND METHODS OF USE THEREOF” (The Trustees of Columbia University in the City of New York, priority 2018, published 2021).)
